Some test systems named below: A549 NSCLC; HCC-2998 colon; HCT-15 colon; K-562 leukemia; KM12 colon; NCI/ADR-RES ovarian; SF-268 CNS; SK-MEL-2 melanoma; SNB-19 CNS; UACC-62 melanoma.
Holding throughout (experiment): inhibition of tumour cell growth, NCI panel, 48 h

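Protocol summary: plate cells (96-well), add compound at 5 concentrations, incubate 48 h, interpolate endpoints linearly. The concentration for 50% growth inhibition is given as GI50. TGI: total growth inhibition.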

`CC(=O)N(O)c1ccc(-c2nc3ccccc3s2)cc1`: the TGI with A549 NSCLC, in the assay with HCC-2998 colon, with HCT-15 colon, in the assay with K-562 leukemia, in the assay on KM12 colon and in the assay with NCI/ADR-RES ovarian was more than 100 µM each time. In addition, the TGI in the assay with SF-268 CNS, in the assay on SK-MEL-2 melanoma, with SNB-19 CNS and in the assay with UACC-62 melanoma was more than 100 µM in each case.
Regarding `CNc1ncc(-c2nnnn2-c2ccccc2)c(CN(C)C)n1`, the TGI in the assay with A549 NSCLC, in the assay on HCC-2998 colon, in the assay with HCT-15 colon, in the assay on K-562 leukemia, with KM12 colon and with NCI/ADR-RES ovarian was more than 100 µM in each case. Moreover, the TGI in the assay with SF-268 CNS, in the assay with SK-MEL-2 melanoma, in the assay with SNB-19 CNS and in the assay with UACC-62 melanoma was more than 100 µM throughout.
Turning to `CC1CC(=O)N(N(C)C)C(C#N)(C#N)C1(C#N)C#N` (stereo not drawn), the TGI in the assay on A549 NSCLC is more than 74.2 µM; in the assay with HCC-2998 colon, 34.9 µM; in the assay on HCT-15 colon, 31.6 µM; in the assay on K-562 leukemia it was more than 66.3 µM; with KM12 colon, more than 64.9 µM; in the assay on NCI/ADR-RES ovarian, 55 µM. Besides, the TGI with SF-268 CNS is more than 58.9 µM; in the assay with SK-MEL-2 melanoma it was 59.3 µM; with SNB-19 CNS it was more than 61.8 µM; with UACC-62 melanoma it was 39.3 µM.
On to `CCc1ccccc1NNc1cc(=O)[nH]c(=O)[nH]1`, for which the TGI was 57.3 µM in the assay with A549 NSCLC; 40.1 µM in the assay on HCC-2998 colon; more than 100 µM in the assay with K-562 leukemia; 36 µM in the assay on KM12 colon; more than 100 µM with NCI/ADR-RES ovarian; 56.2 µM with SK-MEL-2 melanoma. Moreover, the TGI in the assay with SNB-19 CNS was 43.5 µM; in the assay on UACC-62 melanoma, 35.9 µM.
For the molecule `Oc1[nH]c2ccccc2c1/C=c1/cc2c(c(-c3ccc(F)cc3)n1)=Nc1ccccc1-2`, the GI50 in the assay on A549 NSCLC is 815 nM; in the assay with HCC-2998 colon, 726 nM; in the assay on HCT-15 colon, 735 nM; with K-562 leukemia, 435 nM; in the assay on KM12 colon, 363 nM; with NCI/ADR-RES ovarian it was 267 nM. Further, the GI50 in the assay with SF-268 CNS is 1010 nM; in the assay on SK-MEL-2 melanoma, 327 nM; in the assay on SNB-19 CNS, 1430 nM. The TGI with A549 NSCLC was determined as 2.28 µM; in the assay with HCC-2998 colon, 2.16 µM; in the assay with HCT-15 colon it was 2.43 µM; in the assay with K-562 leukemia, 3.55 µM; in the assay with KM12 colon it was 1.87 µM; with NCI/ADR-RES ovarian, 1.25 µM. Besides, the TGI with SF-268 CNS turned out to be 9.26 µM; in the assay on SK-MEL-2 melanoma, 1.34 µM; in the assay with SNB-19 CNS it was 32.6 µM.
For `Cc1nc2c(=S)n(C)ncc2[nH]1`, the TGI with A549 NSCLC, in the assay on HCC-2998 colon, in the assay on HCT-15 colon, in the assay with K-562 leukemia, in the assay with KM12 colon and with NCI/ADR-RES ovarian was more than 100 µM each time. Moreover, the TGI with SK-MEL-2 melanoma and in the assay on UACC-62 melanoma was more than 100 µM in each case.
Turning to `C(=C\N1CCCCC1)/c1nnnn1-c1ccccc1`, the TGI was more than 100 µM with A549 NSCLC; more than 100 µM in the assay with HCC-2998 colon; more than 100 µM in the assay on HCT-15 colon; more than 100 µM in the assay on K-562 leukemia; more than 100 µM in the assay on KM12 colon; 64.5 µM in the assay on NCI/ADR-RES ovarian. For the same molecule, the TGI was 84 µM in the assay on SF-268 CNS, more than 100 µM in the assay on SNB-19 CNS and 54.5 µM in the assay with UACC-62 melanoma.
For the molecule `CC(C)(C)N(Cc1ccc2c(c1)OCO2)C(=O)/C=C\Sc1ccccc1`, the TGI in the assay on A549 NSCLC, in the assay with HCC-2998 colon, with HCT-15 colon, in the assay on K-562 leukemia, with KM12 colon and with NCI/ADR-RES ovarian was more than 100 µM each time. In addition, the TGI in the assay with SK-MEL-2 melanoma, in the assay on SNB-19 CNS and with UACC-62 melanoma was more than 100 µM in each case.
`NC(Cc1ccc(S(=O)(=O)O)cc1)C(=O)NC(Cc1ccc(S(=O)(=O)O)cc1)C(=O)O` (stereo not drawn): the TGI in the assay with A549 NSCLC, in the assay on HCC-2998 colon, in the assay on HCT-15 colon, with K-562 leukemia, in the assay on KM12 colon and in the assay with NCI/ADR-RES ovarian was more than 100 µM each time. In addition, the TGI in the assay on SF-268 CNS, with SK-MEL-2 melanoma and in the assay on UACC-62 melanoma was more than 100 µM each time.
In the case of `CC(=N\N)/C(C)=N/N=C(C)/C(C)=N/N=C(C)/C(C)=N/N`, the TGI with A549 NSCLC, in the assay with HCC-2998 colon, in the assay with HCT-15 colon, in the assay on K-562 leukemia, in the assay with KM12 colon and in the assay with NCI/ADR-RES ovarian was more than 100 µM each time. In addition, the TGI in the assay with SF-268 CNS, in the assay with SK-MEL-2 melanoma and in the assay on SNB-19 CNS was more than 100 µM each time.
Take `COC(OC)[C@@H]1OC[C@@H](O)[C@@H]1n1cnc2c(N)ncnc21`: the TGI with HCC-2998 colon, in the assay with HCT-15 colon, with K-562 leukemia, in the assay on KM12 colon, in the assay with NCI/ADR-RES ovarian and in the assay with SF-268 CNS was more than 100 µM in each case. The TGI with SK-MEL-2 melanoma and in the assay on UACC-62 melanoma was more than 100 µM throughout.

The values are drawn from PubChem BioAssay (NCI).
